The conditions of the data set: 298.15 K; Crystal; Vacuum Sublimation Drop (Calvet Microcalorimeter).

Numbers after ± are expanded uncertainties.

In the case of `c1ccc2c(c1)CCc1ccccc1C2` [1,2:4,5-dibenzocycloheptane], the “molar enthalpy of sublimation” value worked out at 24.8 ± 0.956 kcal/mol.
